Assay results published in patent publication US20250057959A1, “PHOSPHANE GOLD(I)-N-HETEROCYCLIC CARBENE COMPLEXES FOR TREATING CANCER” (KING FAHD UNIVERSITY OF PETROLEUM AND MINERALS, priority 2023, published 2025).
“Also recorded” adds a separate entry of the source.

Key:
A2780 = assay: MTT cell viability assay, A2780; assay type: cell-based, human
Description: Human epithelial ovarian cancer A2780 cell line and its cisplatin-resistant clone A2780cis were obtained from Sigma-Aldrich (Milano, Italy). SKOV3 (HTB-77) cells were from the American Type Culture Collection (ATCC). The two cell lines were selected to reflect the two different stages of OvCa and different sensitivity to cisplatin. A2780 cell lines were derived from the ovarian tumor tissue of an untreated patient, while SKOV3 was from the ascitic fluids (after metastasis). Cells were authenticated in the laboratory using PowerPlex 16 HS system (Promega) and GeneMapper ID version 3.2.1 to identify DNA short tandem repeats. Cell lines were cultured in RPMI-1640 medium containing 10% fetal bovine serum (FBS) (Gibco, Thermo Fisher Scientific, U.S.A), 1% (v/v) of penicillin (10,000 units/mL)-streptomycin (10 mg/mL), and 1% (v/v) L-glutamine (200 mM) (all from Sigma- Aldrich) at 37° C. in a 5% CO2 fully humidified atmosphere. A2780cis cells were continuously exposed to 1 μM cisplatin to maintain cisplatin resistance. Adipose-derived stem cells (ADSCs) were purchased from Lonza and maintained in mesenchymal-stem-cell growth medium Bulletkit MSCGM (Lonza, Verviers, Belgium).
4.0×10^3/mL A2780, A2780cis, and SKOV3 cells were seeded in 96-well microplates in 100 μL of culture medium. Cells were allowed to adhere for 24 hours and then were treated in triplicate with increasing concentrations of gold compounds (0-1 μM). Cisplatin was included as a reference drug. Cell viability was evaluated using 3-(4,5-dimethylthiazol-2-yl)-2,5-diphenyltetrazolium bromide (MTT) assay (Sigma-Aldrich) after 72 hours of treatment. Half maximal inhibitory concentrations (IC50) were calculated using the CalcuSyn software version 2 (Biosoft, Ferguson, MO, USA). Fold resistance was calculated as the ratio of the IC50 of the A2780cis to that of the parental cell line A2780.

SKOV3 cells = assay: In vitro wound healing assay (cell migration); assay type: cell-based, human
Method: Cell migration was assessed using the in vitro wound healing assay. Briefly, cells were grown to confluence and then treated with complex 6. After 24 hours of treatment, the medium was removed and cells were washed then scraped with a pipet tip to create a “wound” in the monolayer and washed again. Fresh medium containing 2% FCS was added. Wounds were photographed at times 0, 24, and 48 hours using an inverted microscope (EclipseTS/100, Nikon, Instruments Europe BV Amsterdam, The Netherlands) at magnification 4. Migration was assessed by measuring the cell-free area (in pixels) with ImageJ-NIH (National Institutes of Health) tool software. The cytoskeleton organization was evaluated by culturing SKOV3 cells onto glass coverslips and performing immunofluorescence staining for α-tubulin and F-actin. SKOV3 cells were treated for 24 hours with complex 6, fixed in 4% paraformaldehyde, permeabilized with 0.5% Triton X-100, and incubated overnight with primary antibody (Table 1) at 4° C. Primary antibody was detected using the appropriate secondary antibody together with phallotoxins (Molecular Probes) and TO-PRO-3 (Thermo Fisher Scientific). Images were acquired using an SP8 confocal microscope (Leica).

A2780 and A2780cis cells = assay: mitROS generation (MitoSOX red), flow cytometry; assay type: cell-based, human
Method: Results were detected by flow cytometry on a BD FACSCanto II flow cytometer. Data were analyzed using BD FACSDiva version 8.0.1 software (BD Biosciences) unless otherwise indicated. To evaluate apoptosis, tumor cells were treated for 48 hours and then stained for 15 minutes with FITC annexin-V (Thermo Fisher Scientific) and 7AAD (BD Pharmingen). […] For B-cell lymphoma/leukemia-2 (Bcl-2) and Bcl-2 associated x protein (Bax) evaluation, cells were fixed and permeabilized using FIX & PERM cell fixation and cell permeabilization kit (Life Technologies). […] The distribution of cells in different cell cycle phases was quantified using ModFit LT 4.0 software (Verity Software House, Topsham, ME, USA).

20S proteasome = target: T1, 20S proteasome (Homo sapiens, UniProt P28074); assay: 20S proteasome activity in lysates of treated cells; assay type: cell-based; settings: OvCa cells treated 24 hours
T1 construct: endogenous in cells; host or cells: A2780, A2780cis and SKOV3 ovarian cancer cells, treated for 24 h and then lysed
Method: Proteasome activity (EC 3.4.25.1) was evaluated on the same cell lysates as TrxR using the 20S proteasome activity assay kit APT280 (Merck Millipore) and a computer-interfaced GeniusPlus microplate reader (Tecan Trading AG, Switzerland). The activity was normalized to the protein concentration and expressed as a percentage of control.

[1] = Body weight and physical inspection of xenografted mice; assay type: in vivo; settings: 2 mg/kg intratumoral, two injections/week
Method: Animal experimentation was reviewed and approved by Centro di Riferimento Oncologico di Aviano (CRO) Institutional Organism for Animal Wellbeing (OPBA) and approved by the Italian Ministry of Health (No. 671/2015/PR). All animal experiments were conducted in adherence to the international and institutional committees' ethical guidelines. Ten 4-week-old female athymic nude NU(NCr)-Foxn1^nu mice were purchased from Charles Rivers (Lecco, Italy). SKOV3 (10×10^6 cells/animal) were suspended in BD Matrigel basement membrane matrix (BD Biosciences) (diluted 1:3 in PBS) and inoculated into the animals' right flank. When tumors were palpable, animals were divided into two groups of five mice each, and treated with intratumoral injection of complex 6 (2 mg/kg) or vehicle (10% DMSO, 20% Cremophor Sigma-Aldrich, 70% PBS) two times a week. Body weight and tumors were examined regularly. Tumor size was measured using a digital caliper, and volumes were calculated according to the formula (width^2×length×3.14)/6.

For `CC(C)c1cccc(C(C)C)c1-n1ccn(-c2c(C(C)C)cccc2C(C)C)[c]1=[Au+][PH](C1CCCCC1)(C1CCCCC1)C1CCCCC1.F[P-](F)(F)(F)(F)F` [Complex 6, [Au(IPr)(C18H33P)] PF6], the IC50 (A2780; 72 hours treatment, MTT) was 140 ± 10 nM, the “Cytotoxic activity ranking within the series” value (A2780; A2780 and A2780cis, Table 8) was “most potent” and the “Activity compared with cisplatin or auranofin in A2780 cells” value (A2780; comparison of IC50, Table 8) was “more active than cisplatin; also recorded: more active than auranofin”. The SKOV3 migration (SKOV3 cells; 24 hours treatment) was “decreased the SKOV3 migration”, the “Remaining uncovered area (wound)” value (SKOV3 cells; 48 hours after scratch, highest concentration, control about 5%) was roughly 70% and the mitROS generation (A2780 and A2780cis cells) was “increased mitochondrial ROS (mitROS) generation in a dose-dependent manner”. For the same compound, the 20S proteasome activity (20S proteasome) was “decreased the 20S proteasome activity in a dose-dependent manner” and the “Physical inspection and body weight” value [1] was “normal to physical inspection with a comparable weight with respect to untreated mice”.
